# *1 amine or outer side, *2 acyl side, *3 side chain or, on linkers, in order; H or OH if unused. Where a SMILES comes first, the peptide text is derived from it. Bridges are numbered along the chain shown (N, C = ends). [ ]: non-standard residue; d: D form. ξ: configuration not given here. ξαMeNle(6-ylidene) = CC(CCCC=[*:3])(N[*:1])C(=O)[*:2]; X1 = CC(CCCCCCC=[*:3])(N[*:1])C(=O)[*:2]; Lys(N3) = [N-]=[N+]=NCCCC[C@H](N)C(=O)O; R8 = C=CCCCCCC[C@@](C)(N)C(=O)O; ξαMeE = CC(N)(CCC(=O)O)C(=O)O; Cba = N[C@@H](CC1CCC1)C(=O)O; S5 = C=CCCC[C@](C)(N)C(=O)O; βAla = NCCC(=O)O
# Tests used:
# Solubility (PBS, pH 7) = conditions: pH 7
# [1] = system: Jump-In T-REx CHO-K1 BLA cells; test: Tetracycline beta-lactamase reporter gene assay (counter screen); assay type: cell-based
# Protocol: Based on Jump-In™ T-REx™ CHO-K1 BLA cells and contain a stably integrated β-lactamase under the control of an inducible CMV promoter. Cells were seeded into a 384-well plate a density of 4000 cells per well. Cells were maintained in Dulbecco's Minimal Eagle Medium (DMEM) with 10% fetal bovine serum (FBS), Blasticidin and Penicillin/Streptomycin. The cells were incubated for 24 hours, followed by cell media removal and replacement with Opti-MEM either containing 10% FBS or 0% FBS. Peptides were then dispensed to each well using a liquid handler, ECHO 555 and incubated for 4/16 hours. Final working concentration of DMSO was 0.5%. β-Lactamase activity was detected using the ToxBLAzer Dual Screen (Invitrogen) as per manufacturer's instructions. Measurements were carried out using Envision multiplate reader (Perkin Elmer). Counter Screen activity was defined as the amount of 0-lactamase activity induced by tetracycline.
# HCT116 cells = test: Lactate dehydrogenase release assay (LDH); assay type: cell-based
# Protocol: HCT116 cells were seeded into a 384-well plate at a density of 8000 cells per well. Cells were maintained in McCoy's 5A Medium with 10% fetal bovine serum (FBS), Blasticidin and Penicillin/Streptomycin. The cells were incubated overnight followed by the removal of cell media and the addition of Opti-MEM Medium without FBS. Cells were then treated with peptides for 4/16 hours in Opti-MEM either in 10% FBS or serum free. Final concentration of DMSO was 0.5%. Lactate dehydrogenase release was detected using CytoTox-ONE Homogenous Membrane Integrity Assay Kit (Promega) as per manufacturer's instructions. Measurements were carried out using Tecan plate reader. Maximum LDH release was defined as the amount of LDH released induced by the lytic peptide (iDNA79) and used to normalize the results.
# p53 null Ca Ski = conditions: for p53 null Ca Ski proliferation % Max: 72 h, 10% serum; for % inhibition at maximum concentration in p53 null negative control cell line: maximum assay concentration (50 uM)
# [2] = system: p53 (HCT116 cells stably transfected with a p53 responsive β-lactamase reporter); test: p53 beta-lactamase reporter gene cellular functional assay; assay type: cell-based
# Protocol: HCT116 cells were stably transfected with a p53 responsive β-lactamase reporter, and were seeded into a 384-well plate at a density of 8,000 cells per well. Cells were maintained in McCoy's 5A Medium with 10% fetal bovine serum ([…]), Blasticidin and Penicillin/Streptomycin. The cells were incubated overnight and followed by removal of cell growth media and replaced with Opti-MEM either containing 0% FBS or 10% FBS. Peptides were then dispensed to each well using a liquid handler, ECHO 555 and incubated for 4/16 hours. Final working concentration of dimethyl sulfoxide (DMSO) was 0.5%. β-Lactamase activity was detected using the ToxBLAzer Dual Screen (Invitrogen) as per manufacturer's instructions. Measurements were done using Envision multiplate reader (Perkin-Elmer). Maximum p53 activity was defined as the amount of β-lactamase activity induced by 50 μM azide-ATSP-7041 (stapled p53 peptide; Aileron Therapeutics, Inc.). This was determined as the highest amount of p53 activity induced by azide-ATSP-7041 by titration on HCT116 cells.
# [3] = target: T1, MDM2 (1-125; SEQ ID NO 14) (Homo sapiens, UniProt Q00987); test: MDM2 binding assay (fluorescence anisotropy competition, FP)
# T1 construct: GST (N); His6 (internal); TEV cleavage site ENLYFQG (internal); made in house; host or cells: E. coli BL21 (DE3) Rosetta T1R
# Protocol: [P] is the protein concentration (MDM2), [L] is the labeled peptide concentration, r is the anisotropy measured, r0 is the anisotropy of the free peptide, rb is the anisotropy of the MDM2-FAM-labeled peptide complex, Kd is the dissociation constant, [L]t is the total FAM labeled peptide concentration, and [P]t is the total MDM2 concentration. […] The competing molecules were then titrated against the complex of the FAM-labeled peptide and protein. Apparent Kd values were determined by fitting the experimental data to the equations shown below:
# [L]st and [L]t denote labeled ligand and total unlabeled ligand input concentrations, respectively. Kd2 is the dissociation constant of the interaction between the unlabeled ligand and the protein. In all competition experiments, it is assumed that [P]t>[L]st, otherwise considerable amounts of free labeled ligand would always be present and would interfere with measurements. […] The FAM-labeled peptide was dissolved in dimethyl sulfoxide (DMSO) at 1 mM and diluted into experimental buffer. Readings were carried out with an Envision Multilabel Reader (PerkinElmer). […] All titrations were carried out in triplicate. Curve-fitting was carried out using Prism 4.0 (GraphPad). […] Negative control titrations of the ligands under investigation were also carried out with the fluorescently labeled peptide (in the absence of MDM2) to ensure no interactions were occurring between the ligands and the FAM-labeled peptide.
# HCT116 = conditions: for HCT116 proliferation % Max: 72 h, 10% serum; for EC50: read-out: cellular efficacy in cell proliferation HTC116 p53 positive control cell lines
# T1 sequence (Q00987 with tags, fused parts or gaps): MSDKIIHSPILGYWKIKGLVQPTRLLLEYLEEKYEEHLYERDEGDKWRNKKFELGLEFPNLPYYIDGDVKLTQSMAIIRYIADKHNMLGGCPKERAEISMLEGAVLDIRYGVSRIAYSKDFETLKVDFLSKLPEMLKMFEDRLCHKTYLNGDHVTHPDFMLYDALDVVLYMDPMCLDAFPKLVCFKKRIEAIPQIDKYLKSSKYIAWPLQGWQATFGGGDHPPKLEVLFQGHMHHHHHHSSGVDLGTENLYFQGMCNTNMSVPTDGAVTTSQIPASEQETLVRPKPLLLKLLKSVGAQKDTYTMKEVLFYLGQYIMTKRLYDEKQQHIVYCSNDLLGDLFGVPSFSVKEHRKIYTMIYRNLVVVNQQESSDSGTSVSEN
SMILES,"solubility (Solubility (PBS, pH 7))",chromatographic logD (HPLC LogD),"EC50 ([1]; 0% FBS, 4 h)","EC50 ([1]; 10% FBS, 16 h)","EC50 (HCT116 cells; 0% FBS, 4 h)","EC50 (HCT116 cells; 10% FBS, 16 h)",p53 null Ca Ski proliferation % Max (p53 null Ca Ski),% inhibition at maximum concentration in p53 null negative control cell line (p53 null Ca Ski),EC50 ([2]; 0% serum at 4 hours),EC50 ([2]; 10% serum at 16 hours),"fold improvement of cellular activity in p53 cellular assay ([2]; versus Reference Macrocycle 1, both 0% serum at 4 hours and 10% serum at 16 hours)",Kd [3],HCT116 proliferation % Max (HCT116),EC50 (HCT116),"solubility (Solubility (PBS, pH 7); PBS)",logD (HPLC LogD),EC50 (p53 null Ca Ski; read-out: EC50 in p53 null negative control cell line)
"CC(=O)N[C@@H](CCCCN=[N+]=[N-])C(=O)NCCC(=O)N[C@@H](CC(C)C)C(=O)N[C@H](C(=O)N[C@@H](Cc1ccccc1)C(=O)NC1(C)CCCCCCC=CCCCC(C)(C(=O)N[C@@H](C)C(=O)N[C@@H](C)C(=O)N[C@@H](Cc2ccccc2)C(=O)N[C@@H](C)C(=O)NC(C)(CCC(=O)O)C(=O)N[C@@H](Cc2ccccc2)C(N)=O)NC(=O)[C@H](CC2CCC2)NC(=O)[C@H](CCC(N)=O)NC(=O)[C@H](C)NC(=O)[C@H](Cc2c[nH]c3ccccc23)NC(=O)[C@H](Cc2ccc(O)cc2)NC(=O)[C@H](CCC(=O)O)NC1=O)[C@@H](C)O (stereo partly drawn) [Macrocycle 9, Ac-K(N3)-betaAla-L-T-F-X1a-E-Y-W-A-Q-Cba-X2a-AAFA-(alpha-methyl-Glu)-F-NH2(olefinstaple from X1ato X2a)] (Ac-[Lys(N3)][βAla]LTF[X1]EYWAQ[Cba][ξαMeNle(6-ylidene)]AAFA[ξαMeE]F-NH2; staple 6-13)",153 µM,2.93,> 50 µM,> 50 µM,–,–,–,–,–,–,–,–,–,–,–,–,–
"CC(=O)N[C@@H](CCCCN=[N+]=[N-])C(=O)NCCC(=O)N[C@@H](CC(C)C)C(=O)N[C@H](C(=O)N[C@@H](Cc1ccccc1)C(=O)N[C@]1(C)CCCCCCC=CCCC[C@@](C)(C(=O)N[C@@H](C)C(=O)N[C@@H](C)C(=O)N[C@@H](C)C(=O)N[C@@H](C)C(=O)N[C@@H](C)C(=O)N[C@@H](C)C(N)=O)NC(=O)[C@H](CC2CCC2)NC(=O)[C@H](CCC(N)=O)NC(=O)[C@H](C)NC(=O)[C@H](Cc2c[nH]c3ccccc23)NC(=O)[C@H](Cc2ccc(O)cc2)NC(=O)[C@H](CCC(=O)O)NC1=O)[C@@H](C)O [Macrocycle 2, Ac-K(N3)-betaAla-L-T-F-X1a-E-Y-W-A-Q-Cba-X2a-AAAAAA-NH2 (olefin staple from X1a to X2a)] (Ac-[Lys(N3)][βAla]LTF[R8]EYWAQ[Cba][S5]AAAAAA-NH2; staple 6-13)",–,–,> 50 µM,> 50 µM,> 50 µM,> 50 µM,29%,29%,0.143 µM,0.749 µM,~3.5 fold,0.0094 µM,89%,0.57 µM,–,–,–
"CC(=O)N[C@@H](CCCCN=[N+]=[N-])C(=O)NCCC(=O)N[C@@H](CC(C)C)C(=O)N[C@H](C(=O)N[C@@H](Cc1ccccc1)C(=O)N[C@]1(C)CCCCCCC=CCCC[C@@](C)(C(=O)N[C@@H](C)C(=O)N[C@@H](C)C(=O)N[C@@H](Cc2ccccc2)C(=O)N[C@@H](C)C(=O)N[C@@H](C)C(=O)N[C@H](Cc2ccccc2)C(N)=O)NC(=O)[C@H](CC2CCC2)NC(=O)[C@H](CCC(N)=O)NC(=O)[C@H](C)NC(=O)[C@H](Cc2c[nH]c3ccccc23)NC(=O)[C@H](Cc2ccc(O)cc2)NC(=O)[C@H](CCC(=O)O)NC1=O)[C@@H](C)O [Macrocycle 5, Ac-K(N3)-betaAla-L-T-F-X1a-E-Y-W-A-Q-Cba-X2a-AAFAA-(D-Phe)-NH2(olefinstaple from X1ato X2a)] (Ac-[Lys(N3)][βAla]LTF[R8]EYWAQ[Cba][S5]AAFAA[dF]-NH2; staple 6-13)",–,–,> 50 µM,> 50 µM,> 50 µM,> 50 µM,–,–,–,–,–,0.056 µM,–,–,9 µM,4.12,–
"CC(=O)N[C@@H](CCCCN=[N+]=[N-])C(=O)NCCC(=O)N[C@@H](CC(C)C)C(=O)N[C@H](C(=O)N[C@@H](Cc1ccccc1)C(=O)N[C@]1(C)CCCCC#CC#CCCC[C@@](C)(C(=O)N[C@@H](C)C(=O)N[C@@H](C)C(=O)N[C@@H](C)C(=O)N[C@@H](C)C(=O)N[C@@H](C)C(=O)N[C@@H](C)C(N)=O)NC(=O)[C@H](CC2CCC2)NC(=O)[C@H](CCC(N)=O)NC(=O)[C@H](C)NC(=O)[C@H](Cc2c[nH]c3ccccc23)NC(=O)[C@H](Cc2ccc(O)cc2)NC(=O)[C@H](CCC(=O)O)NC1=O)[C@@H](C)O [Macrocycle 12, Ac-K(N3)-betaAla-L-T-F-X1b-E-Y-W-A-Q-Cba-X2b-AAAAAA-NH2 (di-alkyne staple from X1b to X2b)]",–,2.69,> 50 µM,> 50 µM,> 50 µM,> 50 µM,3%,3%,–,–,–,–,72%,0.124 µM,–,–,> 50 µM
"CC(=O)N[C@@H](CCCCN=[N+]=[N-])C(=O)NCCC(=O)N[C@@H](CC(C)C)C(=O)N[C@H](C(=O)N[C@@H](Cc1ccccc1)C(=O)N[C@]1(C)CCCCCCC=CCCC[C@@](C)(C(=O)N[C@@H](C)C(=O)N[C@@H](C)C(=O)N[C@@H](Cc2ccccc2)C(=O)N[C@@H](C)C(=O)N[C@@H](C)C(=O)N[C@H](C)C(N)=O)NC(=O)[C@H](CC2CCC2)NC(=O)[C@H](CCC(N)=O)NC(=O)[C@H](C)NC(=O)[C@H](Cc2c[nH]c3ccccc23)NC(=O)[C@H](Cc2ccc(O)cc2)NC(=O)[C@H](CCC(=O)O)NC1=O)[C@@H](C)O [Macrocycle 7, Ac-K(N3)-betaAla-L-T-F-X1a-E-Y-W-A-Q-Cba-X2a-AAFAA-(D-Ala)-NH2(olefinstaple from X1ato X2a)] (Ac-[Lys(N3)][βAla]LTF[R8]EYWAQ[Cba][S5]AAFAA[dA]-NH2; staple 6-13)",–,–,> 50 µM,> 50 µM,> 50 µM,> 50 µM,–,–,–,–,–,0.0042 µM,–,–,2 µM,3.59,–
"CC(=O)N[C@@H](CCCCN=[N+]=[N-])C(=O)NCCC(=O)N[C@@H](CC(C)C)C(=O)N[C@H](C(=O)N[C@@H](Cc1ccccc1)C(=O)N[C@]1(C)CCCCCCC=CCCC[C@@](C)(C(=O)N[C@@H](C)C(=O)N[C@@H](C)C(=O)N[C@@H](C)C(=O)N[C@@H](C)C(=O)N[C@@H](C)C(=O)N[C@@H](Cc2ccccc2)C(N)=O)NC(=O)[C@H](CC2CCC2)NC(=O)[C@H](CCC(N)=O)NC(=O)[C@H](C)NC(=O)[C@H](Cc2c[nH]c3ccccc23)NC(=O)[C@H](Cc2ccc(O)cc2)NC(=O)[C@H](CCC(=O)O)NC1=O)[C@@H](C)O [Macrocycle 6, Ac-K(N3)-betaAla-L-T-F-X1a-E-Y-W-A-Q-Cba-X2a-AAAAAF-NH2 (olefin staple from X1a to X2a)] (Ac-[Lys(N3)][βAla]LTF[R8]EYWAQ[Cba][S5]AAAAAF-NH2; staple 6-13)",–,–,> 50 µM,> 50 µM,> 50 µM,> 50 µM,–,–,–,–,–,0.0021 µM,–,–,–,–,–
